Where two headings read alike, the source gives them in different places.
Assays:
hNET = biological target: T1, hNET (Homo sapiens, UniProt P23975); experiment: hNET binding assay (Assay 1); details: read-out: NET pKi (converted)
T1 construct: expressed in transfected cells; host or cells: HEK-293 derived cell line, stably transfected; membrane preparation
Experimental: (§1) Membrane radioligand binding assays were used to measure competitive inhibition of labeled ligand (^3H-citalopram or ^3H-nisoxetine or ^3H-WIN35428) binding to membranes prepared from cells expressing the respective human recombinant transporter (hSERT or hNET or hDAT) in order to determine the pKi values of test compounds at the transporters.
(§2) Recombinant human embryonic kidney (HEK-293) derived cell lines stably transfected with hSERT or hNET, respectively, were grown in DMEM medium supplemented with 10% dialyzed FBS (for hSERT) or FBS (for hNET), 100 μg/ml penicillin, 100 μg/ml streptomycin, 2 mM L-glutamine and 250 μg/ml of the aminoglycoside antibiotic G418, in a 5% CO2 humidified incubator at 37° C. When cultures reached 80% confluence, the cells were washed thoroughly in PBS (without Ca^2+ and Mg^2+) and lifted with 5 mM EDTA in PBS. Cells were pelleted by centrifugation, resuspended in lysis buffer (10 mM Tris-HCl, pH 7.5 containing 1 mM EDTA), homogenized, pelleted by centrifugation, then resuspended in 50 mM Tris-HCl, pH 7.5 and 10% sucrose at 4° C. Protein concentration of the membrane suspension was determined using a Bio-Rad Bradford Protein Assay kit. Membranes were snap frozen and stored at −80° C. Chinese hamster ovary membranes expressing hDAT (CHO-DAT) were purchased from PerkinElmer and stored at −80° C.
(§3) Stock solutions (10 mM in DMSO) of test compound were prepared and serial dilutions made using Dilution Buffer (50 mM Tris-HCl, 120 mM NaCl, 5 mM KCl, pH 7.4, 0.1% BSA, 400 μM ascorbic acid).
(§4) Following a 60 minute incubation at 22° C. (or a period sufficient to reach equilibrium), the membranes were harvested by rapid filtration over a 96-well UniFilter GF/B plate, pretreated with 0.3% polyethyleneimine, and washed 6 times with 300 μl wash buffer (50 mM Tris-HCl, 0.9% NaCl, pH 7.5 at 4° C.). Plates were dried overnight at room temperature, ˜45 μl of MicroScint™-20 (Perkin Elmer) added and bound radioactivity quantitated via liquid scintillation spectroscopy. Competitive inhibition curves and saturation isotherms were analyzed using GraphPad Prism Software package (GraphPad Software, Inc., San Diego, Calif.). IC50 values were generated from concentration response curves using the Sigmoidal Dose Response (variable slope) algorithm in Prism GraphPad.

hSERT = biological target: T2, hSERT (Homo sapiens, UniProt P31645); experiment: hSERT binding assay (Assay 1)
T2 construct: expressed in transfected cells; host or cells: HEK-293 derived cell line, stably transfected; membrane preparation
Experimental: as §1, §2, §3, §4

[1] = ratio of SERT Ki to NET Ki from binding assays
[2] = ratio of SERT Ki to NET Ki (binding)

T2 sequence (P31645 whole entry): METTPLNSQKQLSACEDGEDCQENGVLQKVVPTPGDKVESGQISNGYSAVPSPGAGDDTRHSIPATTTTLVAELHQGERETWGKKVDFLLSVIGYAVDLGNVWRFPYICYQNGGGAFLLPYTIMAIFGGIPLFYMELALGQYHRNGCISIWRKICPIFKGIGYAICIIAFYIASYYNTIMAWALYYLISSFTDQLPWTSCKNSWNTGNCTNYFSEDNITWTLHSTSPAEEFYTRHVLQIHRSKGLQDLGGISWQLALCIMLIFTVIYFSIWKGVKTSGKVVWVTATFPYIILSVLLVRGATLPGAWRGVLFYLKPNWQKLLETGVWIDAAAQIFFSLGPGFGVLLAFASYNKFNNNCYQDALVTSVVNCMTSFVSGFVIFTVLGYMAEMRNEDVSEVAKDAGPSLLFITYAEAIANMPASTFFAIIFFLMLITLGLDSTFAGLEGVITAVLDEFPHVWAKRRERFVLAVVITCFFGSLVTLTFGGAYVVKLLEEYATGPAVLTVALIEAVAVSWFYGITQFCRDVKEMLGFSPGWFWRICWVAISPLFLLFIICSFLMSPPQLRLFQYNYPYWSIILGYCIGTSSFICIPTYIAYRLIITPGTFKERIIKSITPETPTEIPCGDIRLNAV
T1 sequence (P23975 whole entry): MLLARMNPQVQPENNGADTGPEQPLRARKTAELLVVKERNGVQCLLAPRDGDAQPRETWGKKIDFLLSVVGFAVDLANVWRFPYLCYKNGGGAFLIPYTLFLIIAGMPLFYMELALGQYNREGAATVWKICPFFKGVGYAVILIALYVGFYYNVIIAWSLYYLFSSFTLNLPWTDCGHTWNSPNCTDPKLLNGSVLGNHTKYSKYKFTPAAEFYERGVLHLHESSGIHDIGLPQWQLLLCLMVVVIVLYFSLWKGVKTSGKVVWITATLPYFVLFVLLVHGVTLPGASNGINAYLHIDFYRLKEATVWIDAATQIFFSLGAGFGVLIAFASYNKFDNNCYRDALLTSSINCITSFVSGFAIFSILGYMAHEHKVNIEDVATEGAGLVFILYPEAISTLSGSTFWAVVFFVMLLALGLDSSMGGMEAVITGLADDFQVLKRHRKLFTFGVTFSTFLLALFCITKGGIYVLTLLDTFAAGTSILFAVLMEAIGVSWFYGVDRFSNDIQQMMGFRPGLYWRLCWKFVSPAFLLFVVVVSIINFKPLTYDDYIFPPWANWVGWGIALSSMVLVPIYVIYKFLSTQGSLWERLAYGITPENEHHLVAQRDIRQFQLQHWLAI

Row | Compound | Ki (hNET; hNET binding assay) [nM] | SERT Ki/NET Ki (hSERT; [1]) | Ki (hNET; hNET binding) [nM] | SERT Ki/NET Ki (hSERT; [2])
1 | Clc1ccc(Cl)c(OC(c2ccccc2)C2CCNC2)c1 (stereo not drawn) [29-11] | 3.98 | 0.2 | – | –
2 | Fc1ccc(Cl)c(OC(c2ccccc2)C2CCNC2)c1 (stereo not drawn) [29-12] | 1.58 | 2 | – | –
3 | Cc1ccc(F)cc1OC(c1ccccc1)C1CCNC1 (stereo not drawn) [29-15] | 3.98 | 1.3 | – | –
4 | Cc1ccc(F)cc1OC(c1ccccc1)C1CCNC1 (stereo not drawn) [29-16] | 1.58 | 7.9 | – | –
5 | COc1ccc(Cl)cc1OC(c1ccccc1)C1CCNC1 (stereo not drawn) [29-21] | 3.16 | 1 | – | –
6 | COc1ccc(Cl)cc1OC(c1ccccc1)C1CCNC1 (stereo not drawn) [29-22] | 2.51 | 2.5 | – | –
7 | COc1ccc(F)cc1O[C@@H](c1ccccc1)[C@H]1CCNC1 [29-24] | 1 | 34 | – | –
8 | COc1ccc(F)cc1O[C@H](c1ccccc1)[C@@H]1CCNC1 [29-25] | 7.94 | 0.3 | – | –
9 | Fc1cc(F)cc(C(Oc2cc(Cl)ccc2F)C2CCNC2)c1 (stereo not drawn) [30-1] | 1.26 | 3.2 | – | –
10 | Fc1cc(F)cc(C(Oc2cc(Cl)ccc2F)C2CCNC2)c1 (stereo not drawn) [30-2] | 0.794 | 25 | – | –
11 | Fc1cc(F)cc(C(Oc2cc(Cl)ccc2Cl)C2CCNC2)c1 (stereo not drawn) [30-3] | 3.98 | 0.3 | – | –
12 | Fc1cc(F)cc([C@H](Oc2cc(Cl)ccc2Cl)[C@H]2CCNC2)c1 [30-4] | 3.16 | 2.5 | – | –
13 | COc1ccc(F)cc1O[C@@H](c1cc(F)cc(F)c1)[C@H]1CCNC1 [30-5] | 0.501 | 79 | – | –
14 | COc1ccc(F)cc1OC(c1cc(F)cc(F)c1)C1CCNC1 (stereo not drawn) [30-6] | 5.01 | 0.4 | – | –
15 | COc1ccc(Cl)cc1OC(c1cccc(Cl)c1)C1CCNC1 (stereo not drawn) [30-9] | 7.94 | 0.6 | – | –
16 | Fc1cccc(Cl)c1O[C@@H](c1ccccc1)[C@H]1CCNC1 [31-4] | 0.126 | 40 | – | –
17 | Fc1cccc(Cl)c1O[C@H](c1ccccc1)[C@@H]1CCNC1 [31-5] | 0.631 | 1.3 | – | –

Row | Compound | Ki (hNET; hNET binding assay) [nM] | SERT Ki/NET Ki (hSERT; [1]) | Ki (hNET; hNET binding) [nM] | SERT Ki/NET Ki (hSERT; [2])
18 | Cc1cccc(F)c1OC(c1ccccc1)C1CCNC1 (stereo not drawn) [31-6] | 1.58 | 2 | – | –
19 | Cc1cccc(F)c1O[C@@H](c1ccccc1)[C@H]1CCNC1 [31-7] | 0.2 | 5 | – | –
20 | Cc1cccc(Cl)c1OC(c1ccccc1)C1CCNC1 (stereo not drawn) [31-11] | 2 | 1.3 | – | –
21 | Cc1cccc(Cl)c1O[C@@H](c1ccccc1)[C@H]1CCNC1 [31-12] | 1 | 1.6 | – | –
22 | COc1cccc(F)c1OC(c1ccccc1)C1CCNC1 (stereo not drawn) [31-15] | 2 | 2 | – | –
23 | COc1cccc(F)c1O[C@@H](c1ccccc1)[C@H]1CCNC1 [31-16] | 0.2 | 79 | – | –
24 | COC(=O)c1cccc(Cl)c1O[C@@H](c1ccccc1)[C@H]1CCNC1 [31-17] | 3.16 | 25 | – | –
25 | Cc1ccc(OC(c2ccccc2)C2CCNC2)cc1F (stereo not drawn) [33-2] | 5.01 | 0.1 | – | –
26 | Fc1cc(Cl)cc(OC(c2ccccc2)C2CCNC2)c1 (stereo not drawn) [34-5] | 3.16 | 0.1 | – | –
27 | Clc1cc(Br)cc(OC(c2ccccc2)C2CCNC2)c1 (stereo not drawn) [34-11] | 2.51 | 0.1 | – | –
28 | Clc1cc(Cl)cc(OC(c2ccccc2Cl)C2CCNC2)c1 (stereo not drawn) [35-3] | – | – | 3.16 | 0.1
29 | Fc1ccc(C(Oc2cc(Cl)cc(Cl)c2)C2CCNC2)cc1 (stereo not drawn) [35-9] | – | – | 7.94 | 0.1
30 | Cc1ccc(C(Oc2cc(Cl)cc(Cl)c2)C2CCNC2)cc1 (stereo not drawn) [35-12] | – | – | 7.94 | 0.1
31 | Fc1cc(F)cc(C(Oc2cc(Cl)cc(Cl)c2)C2CCNC2)c1 (stereo not drawn) [35-14] | – | – | 2 | 0.3
32 | Fc1cc(F)cc([C@@H](Oc2cc(Cl)cc(Cl)c2)[C@@H]2CCNC2)c1 [35-17] | – | – | 1.58 | 0.2
33 | Fc1cc(Cl)cc(C(Oc2cc(Cl)cc(Cl)c2)C2CCNC2)c1 (stereo not drawn) [35-18] | – | – | 5.01 | 0.5
